Earlier results, collected in patent publication US20130115640A1, “ACTH for Treatment of Kidney Disease” (priority 2011, published 2013).

System: TGF-β
Details: Losartan 50 mg, 4 weeks, type II diabetes and microalbuminuria

CCCCc1nc(Cl)c(CO)n1Cc1ccc(-c2ccccc2-c2nn[nH]n2)cc1 [Losartan]
plasma TGF-β levels: not altered
urinary TGF-β levels: significantly reduced
